Measurements published in ChEMBL document CHEMBL1201862, “PubChem BioAssay data set” (2004).
Calls of active or inactive are those of the source.

Assays:
NADPH oxidase 1 = NADPH oxidase 1 (Homo sapiens, UniProt Q9Y5S8); type: functional, cell-based;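 note: Cell-based assay with luminescence read-out, IC50 derived from inhibitor dose-response curves; intracellular ROS from endogenous NOX1 in intact HT29 colon cancer cells; potency of inhibitors that lower the ROS luminescence signal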
[1] = rise of 4N DNA cells, HeLa – IC50, dose response (AID 1117351); type: functional, cell-based
[2] = rise of 2N DNA cells, HeLa – IC50, dose response (AID 1117349); type: functional, cell-based
[3] = target: DNA dC->dU-editing enzyme APOBEC-3G (Homo sapiens, UniProt Q9HC16); assay: Dose Response confirmation of small molecule APOBEC3G DNA Deaminase Inhibitors via a fluorescence-based single-stranded DNA deaminase assay. [Related pubchem assays (depositor defined):AID493012, AID493028]; type: functional
DNA dC->dU-editing enzyme APOBEC-3G, sequence (Q9HC16 whole entry): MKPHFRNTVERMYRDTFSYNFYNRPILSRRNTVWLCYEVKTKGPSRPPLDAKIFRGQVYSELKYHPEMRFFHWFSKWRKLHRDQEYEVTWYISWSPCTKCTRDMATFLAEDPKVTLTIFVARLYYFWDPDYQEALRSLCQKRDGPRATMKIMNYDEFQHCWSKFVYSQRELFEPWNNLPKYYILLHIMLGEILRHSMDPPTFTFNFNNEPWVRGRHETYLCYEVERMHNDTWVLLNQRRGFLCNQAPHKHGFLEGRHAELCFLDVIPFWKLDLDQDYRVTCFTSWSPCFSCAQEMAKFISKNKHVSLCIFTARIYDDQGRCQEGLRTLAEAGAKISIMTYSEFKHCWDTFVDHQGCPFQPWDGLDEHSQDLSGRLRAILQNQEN

Genome polyprotein = Genome polyprotein (Hepatitis C virus, UniProt Q2Q167); assay: disruption of hepatitis C core self-association – biochemical, TR-FRET, dose response (AID 2159); parameters: species or system Hepacivirus hominis;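 note: blocks dimerization of HCV core protein measured by TR-FRET between tagged core106 pairs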
Genome polyprotein, sequence (Q2Q167 whole entry): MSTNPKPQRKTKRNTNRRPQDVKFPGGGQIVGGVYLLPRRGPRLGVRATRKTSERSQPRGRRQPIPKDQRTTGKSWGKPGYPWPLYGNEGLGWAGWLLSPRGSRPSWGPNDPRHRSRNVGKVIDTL

[4] = P. falciparum Dd2 growth inhibitors, dose response, SYBR Green, cherry-picked samples (AID 1159567); type: functional, cell-based
[5] = Plasmodium falciparum Dd2 Sybr green parasite growth Measured in Cell-Based and Microorganism Combination System Using Plate Reader - 2153-01_Inhibitor_Dose_DryPowder_Activity_Set3.; type: functional
[6] = Dd2 malaria parasite growth inhibition potency – SYBR Green, dry powder samples, dose response (AID 1159566); type: functional, cell-based;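 note: potency for growth inhibition with lower SYBR green DNA signal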
[7] = Dd2 parasite growth inhibition in erythrocytes – SYBR Green, dry powder samples, set 9, dose response (AID 1159568); type: functional, cell-based
[8] = growth inhibition of yeast DHODH-expressing 3D7 parasites – SYBR Green, dry powder samples, dose response (AID 1159570); type: functional, cell-based;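 note: parasite growth measured after 72 hours of compound exposure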
[9] = growth inhibition of PfATP4-mutant resistant parasites – NITD609-resistant line, SYBR Green, dry powder, dose response (AID 1159571); type: functional, cell-based;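 note: parasites synchronized at ring stage by sorbitol before testing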
[10] = toxicity to human HepG2 hepatoma cells – cell-based, plate reader, dry powder samples, cytotoxicity control, dose response (AID 1159569); type: functional;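 note: inhibitor potency with signal falling toward the positive control level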
[11] = viability loss of HPDE-C7K cells – cell-based, fluorescence, HTS, primary screen (AID 431); type: functional; details: Homo sapiens
[12] = HPDE-C7 pancreatic duct cell viability loss – fluorescence, HTS (AID 430); type: functional, cell-based; details: Homo sapiens
[13] = target: Serine/threonine-protein phosphatase (Homo sapiens, UniProt Q9BPW0); assay: inhibition of protein phosphatase 5 activity – biochemical, fluorescence, dose response (AID 2395)
Serine/threonine-protein phosphatase, sequence (Q9BPW0 whole entry): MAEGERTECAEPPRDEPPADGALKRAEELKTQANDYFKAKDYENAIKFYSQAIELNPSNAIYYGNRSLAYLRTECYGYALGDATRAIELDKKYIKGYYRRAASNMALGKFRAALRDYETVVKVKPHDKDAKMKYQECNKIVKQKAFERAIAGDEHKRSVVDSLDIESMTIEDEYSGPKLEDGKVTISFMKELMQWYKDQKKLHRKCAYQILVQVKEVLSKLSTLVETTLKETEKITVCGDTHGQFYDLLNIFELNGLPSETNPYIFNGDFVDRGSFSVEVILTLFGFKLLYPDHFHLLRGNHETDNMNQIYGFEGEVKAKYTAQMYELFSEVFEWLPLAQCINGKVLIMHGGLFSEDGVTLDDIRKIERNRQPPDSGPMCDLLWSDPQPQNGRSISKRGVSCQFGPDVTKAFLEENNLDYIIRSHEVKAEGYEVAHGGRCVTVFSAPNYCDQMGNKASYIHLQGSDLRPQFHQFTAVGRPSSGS

[14] = target: Serine/threonine-protein phosphatase PP1-alpha catalytic subunit (Homo sapiens, UniProt P62136); assay: inhibition of protein phosphatase 1 activity – biochemical, fluorescence, dose response (AID 2394)
Serine/threonine-protein phosphatase PP1-alpha catalytic subunit, sequence (P62136 whole entry): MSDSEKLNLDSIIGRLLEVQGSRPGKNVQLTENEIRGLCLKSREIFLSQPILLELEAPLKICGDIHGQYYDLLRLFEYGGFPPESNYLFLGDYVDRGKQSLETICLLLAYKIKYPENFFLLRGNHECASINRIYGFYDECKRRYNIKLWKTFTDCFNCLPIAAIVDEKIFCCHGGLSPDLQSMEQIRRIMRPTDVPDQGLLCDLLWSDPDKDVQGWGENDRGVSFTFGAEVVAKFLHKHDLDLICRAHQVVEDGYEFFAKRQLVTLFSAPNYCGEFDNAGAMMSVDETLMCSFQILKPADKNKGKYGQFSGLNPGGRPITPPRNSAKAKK

[15] = glucagon-like peptide-1 release potency in STC-1, concentration-response, half-maximal inhibitory concentration in the STC-1 line (AID 1117345); type: functional, cell-based
[16] = Potency on glucagon-like peptide 1 release, dose-response in NCI-H716 cell line, half maximal inhibitory concentration (AID 1117344); type: functional, cell-based
[17] = target: Luciferin 4-monooxygenase (Photinus pyralis, UniProt P08659); assay: inhibition of purified Photinus pyralis luciferase – biochemical, luminescence, dose response (AID 1891)
Luciferin 4-monooxygenase, sequence (P08659 whole entry): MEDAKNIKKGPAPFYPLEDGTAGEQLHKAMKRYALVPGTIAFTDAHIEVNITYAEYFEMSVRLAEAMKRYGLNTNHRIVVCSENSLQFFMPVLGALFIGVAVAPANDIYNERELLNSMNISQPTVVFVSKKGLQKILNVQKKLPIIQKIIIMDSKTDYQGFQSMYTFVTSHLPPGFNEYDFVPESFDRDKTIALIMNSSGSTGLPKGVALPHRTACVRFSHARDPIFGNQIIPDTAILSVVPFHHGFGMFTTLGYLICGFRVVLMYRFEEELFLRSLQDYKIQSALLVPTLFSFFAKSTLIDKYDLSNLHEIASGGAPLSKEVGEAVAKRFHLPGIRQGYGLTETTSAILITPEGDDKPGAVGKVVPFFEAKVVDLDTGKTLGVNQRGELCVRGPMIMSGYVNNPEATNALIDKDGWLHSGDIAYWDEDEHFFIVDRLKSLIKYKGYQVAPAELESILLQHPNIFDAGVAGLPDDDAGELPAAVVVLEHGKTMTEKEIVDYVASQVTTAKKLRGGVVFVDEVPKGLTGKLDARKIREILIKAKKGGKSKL

[18] = Fluorescence Cell-Based Dose Response to Identify Inhibitors of Thrombin Receptor-Activating Peptide SFLLRN-Mediated P-Selectin Induction on Platelets. [Related pubchem assays: 1663 (Primary HTS), 1889 (retest at dose ), 1891 (counterscreen), 1678 (Project Summary)]; type: functional
[19] = Luminescence Cell-Based Dose Confirmation HTS to Identify Inhibitors of Platelet Dense Granule Release. [Related pubchem assays: 1663 (Primary HTS), 1678 (Summary of Project)]; type: functional
[20] = target: Aryl hydrocarbon receptor (Homo sapiens, UniProt P35869); assay: Luminescence-based cell-based high throughput dose response assay for activators of the Aryl Hydrocarbon Receptor (AHR). [Related pubchem assays: 2796 (Primary screen (AHR activators in singlicate)), 2845 (Confirmation screen (AHR activators in triplicate)), 434939 (Counterscreen (PXR activators in triplicate)), 2804 (Summary (AHR activators))]; type: ADME
Aryl hydrocarbon receptor, sequence (P35869 whole entry): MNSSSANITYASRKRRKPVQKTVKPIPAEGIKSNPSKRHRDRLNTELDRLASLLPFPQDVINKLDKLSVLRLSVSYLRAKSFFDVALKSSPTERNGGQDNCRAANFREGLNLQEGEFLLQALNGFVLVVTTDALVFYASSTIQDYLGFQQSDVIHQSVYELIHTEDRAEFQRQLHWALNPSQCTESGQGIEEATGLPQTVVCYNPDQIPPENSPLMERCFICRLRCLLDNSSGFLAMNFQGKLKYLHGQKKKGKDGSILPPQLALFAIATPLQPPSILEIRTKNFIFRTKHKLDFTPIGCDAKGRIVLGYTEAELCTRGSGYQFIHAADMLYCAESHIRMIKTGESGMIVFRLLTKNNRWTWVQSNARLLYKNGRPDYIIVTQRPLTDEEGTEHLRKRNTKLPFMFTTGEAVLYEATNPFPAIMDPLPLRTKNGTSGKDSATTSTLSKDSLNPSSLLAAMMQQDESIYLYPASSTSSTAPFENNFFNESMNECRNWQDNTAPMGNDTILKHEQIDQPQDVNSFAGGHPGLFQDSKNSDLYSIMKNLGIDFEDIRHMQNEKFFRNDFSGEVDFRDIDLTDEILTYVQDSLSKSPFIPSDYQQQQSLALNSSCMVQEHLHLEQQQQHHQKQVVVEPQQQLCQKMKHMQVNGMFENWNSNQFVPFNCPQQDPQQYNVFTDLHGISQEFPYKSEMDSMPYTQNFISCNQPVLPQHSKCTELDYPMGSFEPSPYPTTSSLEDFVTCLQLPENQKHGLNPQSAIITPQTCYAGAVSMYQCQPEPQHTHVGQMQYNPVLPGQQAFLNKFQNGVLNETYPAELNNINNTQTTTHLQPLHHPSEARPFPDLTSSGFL

[21] = A cytotoxicity screen of small molecule inhibitors of the PhoP region in Salmonella typhi identified in the primary screen. [Related pubchem assays: 1850, 1864, 1985 ]; type: functional
Protein skinhead-1 = target: T1, Protein skinhead-1 (Caenorhabditis elegans, UniProt P34707); type: functional
T1 sequence (P34707 whole entry): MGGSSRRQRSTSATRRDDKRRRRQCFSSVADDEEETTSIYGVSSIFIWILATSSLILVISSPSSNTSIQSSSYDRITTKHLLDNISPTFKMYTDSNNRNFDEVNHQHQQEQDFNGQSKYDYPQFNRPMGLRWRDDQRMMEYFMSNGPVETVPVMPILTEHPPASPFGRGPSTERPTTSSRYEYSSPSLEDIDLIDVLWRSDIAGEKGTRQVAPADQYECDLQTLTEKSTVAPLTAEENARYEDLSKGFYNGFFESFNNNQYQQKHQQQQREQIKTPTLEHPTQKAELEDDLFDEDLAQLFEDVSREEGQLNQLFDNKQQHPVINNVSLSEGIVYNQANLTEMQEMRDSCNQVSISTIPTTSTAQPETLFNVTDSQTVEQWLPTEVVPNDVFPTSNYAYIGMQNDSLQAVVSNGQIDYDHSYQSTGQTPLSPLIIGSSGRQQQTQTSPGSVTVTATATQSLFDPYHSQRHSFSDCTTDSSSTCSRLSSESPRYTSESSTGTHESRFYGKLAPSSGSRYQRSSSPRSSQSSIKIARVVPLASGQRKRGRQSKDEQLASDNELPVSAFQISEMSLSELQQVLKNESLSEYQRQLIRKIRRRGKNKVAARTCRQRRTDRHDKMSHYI

Estrogen receptor = target: T2, Estrogen receptor (Homo sapiens, UniProt P03372);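 note: potency for inhibiting coactivator peptide recruitment to the receptor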
T2 sequence (P03372 whole entry): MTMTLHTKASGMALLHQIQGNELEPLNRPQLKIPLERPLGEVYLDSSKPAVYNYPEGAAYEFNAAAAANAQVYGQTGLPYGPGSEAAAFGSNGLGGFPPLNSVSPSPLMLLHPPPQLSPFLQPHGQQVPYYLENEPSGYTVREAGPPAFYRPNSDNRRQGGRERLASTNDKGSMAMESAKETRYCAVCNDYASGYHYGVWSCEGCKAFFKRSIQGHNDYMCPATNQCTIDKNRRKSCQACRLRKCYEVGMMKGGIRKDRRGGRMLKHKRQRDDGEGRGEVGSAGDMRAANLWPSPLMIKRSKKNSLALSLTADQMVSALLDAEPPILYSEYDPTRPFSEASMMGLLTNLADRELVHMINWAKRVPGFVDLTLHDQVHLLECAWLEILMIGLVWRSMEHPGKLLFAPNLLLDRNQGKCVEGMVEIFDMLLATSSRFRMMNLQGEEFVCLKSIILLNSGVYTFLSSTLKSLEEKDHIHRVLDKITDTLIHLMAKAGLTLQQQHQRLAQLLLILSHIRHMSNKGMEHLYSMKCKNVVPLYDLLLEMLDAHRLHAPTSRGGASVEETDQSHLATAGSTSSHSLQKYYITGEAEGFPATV

[22] = target: Fructose-bisphosphate aldolase (Mycobacterium tuberculosis, UniProt P9WQA3); assay: Fluorescence-based biochemical high throughput dose response assay for inhibitors of the fructose-bisphosphate aldolase (FBA) of M. tuberculosis.; type: functional
Fructose-bisphosphate aldolase, sequence (P9WQA3 whole entry): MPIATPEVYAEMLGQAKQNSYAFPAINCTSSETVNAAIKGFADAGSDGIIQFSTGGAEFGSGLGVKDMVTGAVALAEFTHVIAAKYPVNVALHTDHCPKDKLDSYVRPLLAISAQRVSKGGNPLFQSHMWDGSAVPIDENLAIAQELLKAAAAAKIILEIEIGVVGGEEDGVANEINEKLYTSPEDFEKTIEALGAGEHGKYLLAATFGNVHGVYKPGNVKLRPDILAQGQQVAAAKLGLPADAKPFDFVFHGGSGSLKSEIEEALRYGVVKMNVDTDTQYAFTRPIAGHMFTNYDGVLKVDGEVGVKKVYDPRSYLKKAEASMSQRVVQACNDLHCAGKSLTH

[23] = M. tuberculosis H37Rv growth inhibitors, H37Rv strain (AID 1626); type: functional
Large T antigen = Large T antigen (Simian virus 40, UniProt P03070); type: functional, Betapolyomavirus macacae;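 note: Confirmatory-stage PubChem screen for compounds that inhibit SV40 T antigen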
Large T antigen, sequence (P03070 whole entry): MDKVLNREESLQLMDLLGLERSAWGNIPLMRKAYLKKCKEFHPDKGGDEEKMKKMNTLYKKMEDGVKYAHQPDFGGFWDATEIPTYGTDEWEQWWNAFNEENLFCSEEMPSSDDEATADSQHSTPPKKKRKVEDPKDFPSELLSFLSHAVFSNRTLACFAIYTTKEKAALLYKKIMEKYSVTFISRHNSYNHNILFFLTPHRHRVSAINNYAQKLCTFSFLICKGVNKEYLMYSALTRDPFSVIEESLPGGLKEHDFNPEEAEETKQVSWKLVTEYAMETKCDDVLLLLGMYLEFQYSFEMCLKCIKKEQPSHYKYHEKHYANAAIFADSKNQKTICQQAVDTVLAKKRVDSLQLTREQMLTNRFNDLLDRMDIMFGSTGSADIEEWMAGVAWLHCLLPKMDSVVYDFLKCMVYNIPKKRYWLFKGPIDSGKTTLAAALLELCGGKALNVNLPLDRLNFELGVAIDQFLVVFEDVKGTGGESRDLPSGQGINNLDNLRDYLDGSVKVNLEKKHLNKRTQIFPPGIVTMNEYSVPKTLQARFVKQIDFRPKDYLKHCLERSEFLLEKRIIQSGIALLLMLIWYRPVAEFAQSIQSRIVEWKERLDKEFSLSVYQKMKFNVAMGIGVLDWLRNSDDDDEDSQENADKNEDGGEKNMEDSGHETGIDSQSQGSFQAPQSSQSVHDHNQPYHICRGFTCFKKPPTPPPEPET

[24] = target: T3, Replicative DNA helicase DnaB (Mycobacterium tuberculosis, UniProt P9WMR3); assay: DnaB intein splicing inhibitors, dose response, biochemical, cell-free fluorescence (AID 449749); type: functional
T3 sequence (P9WMR3 whole entry): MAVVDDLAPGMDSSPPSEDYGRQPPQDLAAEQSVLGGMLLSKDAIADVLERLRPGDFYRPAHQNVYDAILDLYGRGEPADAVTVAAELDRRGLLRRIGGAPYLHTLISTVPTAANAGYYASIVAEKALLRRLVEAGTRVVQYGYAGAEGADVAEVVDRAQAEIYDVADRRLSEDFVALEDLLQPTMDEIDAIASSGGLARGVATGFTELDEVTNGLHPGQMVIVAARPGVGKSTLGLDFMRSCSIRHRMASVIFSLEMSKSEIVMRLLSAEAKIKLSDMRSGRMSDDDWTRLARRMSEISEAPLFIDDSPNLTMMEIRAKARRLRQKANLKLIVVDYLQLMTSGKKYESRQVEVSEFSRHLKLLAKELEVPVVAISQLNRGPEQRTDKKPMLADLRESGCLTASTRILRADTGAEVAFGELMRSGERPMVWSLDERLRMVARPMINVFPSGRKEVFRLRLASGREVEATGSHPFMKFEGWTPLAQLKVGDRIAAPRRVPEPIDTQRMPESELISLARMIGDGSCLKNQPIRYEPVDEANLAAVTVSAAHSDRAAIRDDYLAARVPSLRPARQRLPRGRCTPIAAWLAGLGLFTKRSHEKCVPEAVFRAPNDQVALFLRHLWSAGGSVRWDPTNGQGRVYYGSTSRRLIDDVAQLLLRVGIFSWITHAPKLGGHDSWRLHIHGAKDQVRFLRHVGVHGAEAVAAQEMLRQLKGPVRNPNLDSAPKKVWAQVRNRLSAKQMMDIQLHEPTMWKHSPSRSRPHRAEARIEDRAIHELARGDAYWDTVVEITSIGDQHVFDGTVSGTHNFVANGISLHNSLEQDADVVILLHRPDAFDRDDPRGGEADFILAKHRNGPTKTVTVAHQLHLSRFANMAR

Protein RecA = target: T4, Protein RecA (Mycobacterium tuberculosis, UniProt P9WHJ3); assay: Fluorescence Cell-Free Homogeneous Dose Retest to Identify Inhibitors of RecA-Intein Splicing Activity. [Related pubchem assays (depositor defined):AID2097, AID2223, AID489010, AID492950]; type: functional
T4 sequence (P9WHJ3 whole entry): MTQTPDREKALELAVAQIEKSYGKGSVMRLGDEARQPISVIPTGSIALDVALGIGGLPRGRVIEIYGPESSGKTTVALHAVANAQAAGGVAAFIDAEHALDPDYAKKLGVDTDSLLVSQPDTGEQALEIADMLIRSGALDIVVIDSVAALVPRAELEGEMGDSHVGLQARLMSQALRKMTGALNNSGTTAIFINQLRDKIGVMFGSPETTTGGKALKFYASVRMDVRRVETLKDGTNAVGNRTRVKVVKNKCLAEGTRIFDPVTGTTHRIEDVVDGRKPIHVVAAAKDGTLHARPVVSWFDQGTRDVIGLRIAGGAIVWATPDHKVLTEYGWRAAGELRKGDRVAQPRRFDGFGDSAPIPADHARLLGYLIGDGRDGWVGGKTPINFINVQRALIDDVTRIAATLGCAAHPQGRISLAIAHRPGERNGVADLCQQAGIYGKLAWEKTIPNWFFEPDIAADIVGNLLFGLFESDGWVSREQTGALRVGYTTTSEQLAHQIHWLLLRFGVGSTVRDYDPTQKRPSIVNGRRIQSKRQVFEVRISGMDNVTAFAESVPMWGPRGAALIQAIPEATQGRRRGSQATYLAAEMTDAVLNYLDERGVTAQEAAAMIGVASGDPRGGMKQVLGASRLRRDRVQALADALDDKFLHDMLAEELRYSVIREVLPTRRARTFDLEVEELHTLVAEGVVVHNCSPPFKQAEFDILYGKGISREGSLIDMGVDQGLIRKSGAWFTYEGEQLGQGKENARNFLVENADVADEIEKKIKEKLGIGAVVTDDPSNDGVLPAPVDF

NADPH oxidase 1, sequence (Q9Y5S8 whole entry): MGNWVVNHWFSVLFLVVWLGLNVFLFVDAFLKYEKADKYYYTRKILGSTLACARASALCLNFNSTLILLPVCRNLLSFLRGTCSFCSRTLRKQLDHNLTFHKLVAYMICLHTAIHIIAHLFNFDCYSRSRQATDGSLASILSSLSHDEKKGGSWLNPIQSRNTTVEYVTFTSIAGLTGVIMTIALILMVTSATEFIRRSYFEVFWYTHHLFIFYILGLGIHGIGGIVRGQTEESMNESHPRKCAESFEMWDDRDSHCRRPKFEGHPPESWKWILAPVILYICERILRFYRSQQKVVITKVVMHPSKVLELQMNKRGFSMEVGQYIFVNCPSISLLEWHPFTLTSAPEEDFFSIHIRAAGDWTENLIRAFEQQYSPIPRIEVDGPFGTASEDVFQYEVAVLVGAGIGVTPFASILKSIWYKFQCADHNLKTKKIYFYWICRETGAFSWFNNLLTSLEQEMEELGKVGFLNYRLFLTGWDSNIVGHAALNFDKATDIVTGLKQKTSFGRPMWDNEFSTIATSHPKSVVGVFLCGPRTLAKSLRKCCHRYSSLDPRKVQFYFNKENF

Clc1ccccc1-c1nc(-c2ccccc2)c(-c2ccccc2)[nH]1
IC50 (NADPH oxidase 1): > 17 µM (not active)

O=C1c2c(O)cccc2Cc2cccc(O)c21 [ANTHRALIN]
IC50 [1]: > 10 µM (inactive)
IC50 [2]: > 10 µM (inactive)
IC50 [3]: > 100 µM (inactive)
IC50 (Genome polyprotein): > 49.8 µM (not active)

CO[C@@H]1CN(C)C(=O)c2ccc(NC(=O)Nc3ccccc3F)cc2OC[C@@H](C)N(CC2CC2)C[C@H]1C
AC50 [4]: 0.399 µM (active)
AC50 [5]: 3.04 µM (active)
AC50 [6]: 0.0955 µM (active)
AC50 [7]: 0.799 µM (active)
AC50 [8]: 6.67 µM (active)
AC50 [9]: 0.961 µM (active)
AC50 [10]: > 100 µM (inactive)

COc1ccc(-n2nnc3c(SCC(=O)Nc4ccc5c(c4)OCCO5)ncnc32)cc1
EC50 [11]: 8.32 µM (active)
EC50 [12]: 7.96 µM (active)

Cc1ccc(S(=O)(=O)c2ccc3c(c2)Sc2ccc(Cl)cc2N3)cc1
IC50 (NADPH oxidase 1): 5.25 µM (active)

COC(=O)CCC(=O)OC1(C)C(=O)C=C2C=C(C3CC3)N(C3CCCC3)C=C2C1=O (stereo not given)
IC50 [13]: 11 µM (not active)
IC50 [14]: > 67 µM (not active)

O=S(=O)(CC(CN1CCCC1)N1CCCC1)c1ccc2ccccc2c1 (stereo not given)
EC50 [11]: 2.38 µM (active)
EC50 [12]: 2.04 µM (active)

COc1ccc(OC(=O)N(CC(=O)O)Cc2ccc(OCCc3nc(-c4ccccc4)oc3C)cc2)cc1 [MURAGLITAZAR]
IC50 [15]: 1.54 µM (active)
IC50 [16]: 36.2 µM (inactive)

COC(=O)CS(=O)(=O)c1ccc2c(c1)CC(=O)N2
EC50 [17]: > 112 µM (not active)
EC50 [18]: < 1 µM (active)
EC50 [19]: 1.45 µM (active)

COc1ccc(N2CCN(c3cc(C)c4ccc(O)cc4n3)CC2)cc1
EC50 [20]: 3.47 µM (active)
EC50 [21]: > 50 µM (active)

N#Cc1c(N)oc(-c2ccc3c(c2)OCO3)c1-c1ccc2c(c1)OCO2
IC50 (Protein skinhead-1): > 100 µM (inactive)
IC50 (Estrogen receptor): > 50 µM (not active)

C[C@@H]1CCCCO[C@H](CN(C)S(=O)(=O)c2ccc(F)cc2)[C@H](C)CN([C@@H](C)CO)C(=O)c2cc(N(C)C)ccc2O1
AC50 [7]: 5.44 µM (active)

O=C(Nc1ccon1)c1cnc2sccn2c1=O
IC50 [22]: 4.61 µM (active)
EC50 [20]: 1.85 µM (active)

Oc1cnn(-c2ccccc2)c1
IC50 [23]: > 100 µM (active)
IC50 (Large T antigen): 4.71 µM (active)
AC50 [24]: 12.7 µM (active)
EC50 (Protein RecA): 1.1 µM (active)

CCCC(=O)Nc1ccc2c(c1)OC[C@@H](C)N(Cc1ccccc1F)C[C@@H](C)[C@H](OC)CN(C)C2=O
AC50 [4]: 0.841 µM (active)
AC50 [5]: 1.78 µM (active)
AC50 [6]: 0.34 µM (active)
AC50 [8]: 4.01 µM (active)
AC50 [9]: 1.33 µM (active)
